# Measurements published in patent US20240368135A1 (VERTEX PHARMACEUTICALS INCORPORATED, priority 2021, published 2024).
# Where two headings read alike, the source gives them in different places.
# Molecular target: human NaV 1.8 (Homo sapiens, UniProt Q9Y5Y9)
# Test: E-VIPR assay detecting and measuring NaV inhibition properties
# Assay type: cell-based
# Details: HEK cells expressing truncated human NaV 1.8
# Summary of the method: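 HEK cells expressing truncated, fully active human NaV1.8, with KIR2.1 BacMam co-transduction, were loaded with CC2-DMPE/DiSBAC6(3) voltage-sensing dyes for 20 min at room temperature. Compounds were tested in 11-point 3-fold dilutions (300 nM top final), optionally with 25% human serum, under electrical stimulation with FRET read-out.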
# [1] = no human serum, read-out: IC50 in the E-VIPR Assay
# Chain of human NaV 1.8 (Q9Y5Y9 126-399 limits assumed): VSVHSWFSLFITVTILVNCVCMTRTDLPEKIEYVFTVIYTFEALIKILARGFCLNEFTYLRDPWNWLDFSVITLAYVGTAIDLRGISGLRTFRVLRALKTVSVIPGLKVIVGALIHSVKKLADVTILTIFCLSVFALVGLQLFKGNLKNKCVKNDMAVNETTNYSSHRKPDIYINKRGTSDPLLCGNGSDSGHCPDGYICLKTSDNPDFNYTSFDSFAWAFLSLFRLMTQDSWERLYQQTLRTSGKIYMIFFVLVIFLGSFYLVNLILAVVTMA
# Chain of human NaV 1.8 (Q9Y5Y9 660-890 limits assumed): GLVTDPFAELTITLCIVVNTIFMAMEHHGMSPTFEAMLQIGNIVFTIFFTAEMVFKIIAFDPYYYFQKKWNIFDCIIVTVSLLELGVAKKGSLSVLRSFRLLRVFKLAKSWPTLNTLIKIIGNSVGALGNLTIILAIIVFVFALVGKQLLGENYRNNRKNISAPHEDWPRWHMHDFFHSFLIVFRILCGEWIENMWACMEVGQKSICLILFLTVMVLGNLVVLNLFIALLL
# Chain of human NaV 1.8 (Q9Y5Y9 1148-1722 limits assumed): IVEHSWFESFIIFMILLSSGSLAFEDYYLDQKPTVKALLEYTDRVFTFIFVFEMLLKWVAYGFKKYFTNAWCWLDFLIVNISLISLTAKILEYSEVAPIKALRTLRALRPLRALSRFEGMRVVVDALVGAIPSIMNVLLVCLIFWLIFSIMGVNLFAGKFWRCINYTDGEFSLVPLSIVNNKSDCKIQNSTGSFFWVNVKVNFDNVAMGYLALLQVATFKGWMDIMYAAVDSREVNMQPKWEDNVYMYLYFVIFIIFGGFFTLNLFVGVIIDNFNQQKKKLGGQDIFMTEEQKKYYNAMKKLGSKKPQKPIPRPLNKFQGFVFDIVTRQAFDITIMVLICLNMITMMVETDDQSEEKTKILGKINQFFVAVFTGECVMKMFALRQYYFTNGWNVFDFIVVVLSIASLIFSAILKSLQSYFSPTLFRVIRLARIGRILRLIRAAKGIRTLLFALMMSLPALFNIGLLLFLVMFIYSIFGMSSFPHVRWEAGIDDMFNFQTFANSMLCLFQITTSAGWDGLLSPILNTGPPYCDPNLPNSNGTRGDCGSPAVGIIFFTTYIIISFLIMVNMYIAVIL
SMILES,IC50 [1] [nM],"IC50 (in the presence of human serum (compound numbers followed by *), read-out: IC50 in the E-VIPR Assay, performed in the presence of human serum) [nM]"
"COc1c([C@H]2[C@H](C(=O)Nc3ccc(C(C)(O)CF)nc3)O[C@@](C)(C(F)(F)F)[C@H]2C)ccc(F)c1F (single isomer, unassigned) [Compound 224, rel-(2R*,3S*,4S*,5R*)-3-(3,4-difluoro-2-methoxyphenyl)-N-(6-(1-fluoro-2-hydroxypropan-2-yl)pyridin-3-yl)-4,5-dimethyl-5-(trifluoromethyl)tetrahydrofuran-2-carboxamide]",100 to 1000,–
"COc1c([C@H]2[C@H](C(=O)Nc3ccnc(C(C)(O)CF)c3)O[C@@](C)(C(F)(F)F)[C@H]2C)ccc(F)c1F (single isomer, unassigned) [Compound 226, rel-(2R*,3S*,4S*,5R*)-3-(3,4-difluoro-2-methoxyphenyl)-N-(2-(1-fluoro-2-hydroxypropan-2-yl)pyridin-4-yl)-4,5-dimethyl-5-(trifluoromethyl)tetrahydrofuran-2-carboxamide]",< 10,–
"COc1c([C@H]2[C@H](C(=O)Nc3cc(C(C)(O)CF)ncn3)O[C@@](C)(C(F)(F)F)[C@H]2C)ccc(F)c1F (single isomer, unassigned) [Compound 228, rel-(2R*,3S*,4S*,5R*)-3-(3,4-difluoro-2-methoxyphenyl)-N-(6-(1-fluoro-2-hydroxypropan-2-yl)pyrimidin-4-yl)-4,5-dimethyl-5-(trifluoromethyl)tetrahydrofuran-2-carboxamide]",10 to 100,–
"COc1c([C@H]2[C@H](C(=O)Nc3ccnc(C(CO)N(C)C)c3)O[C@@](C)(C(F)(F)F)[C@H]2C)ccc(F)c1F (single isomer, unassigned) [Compound 230, rel-(2R*,3S*,4S*,5R*)-3-(3,4-difluoro-2-methoxyphenyl)-N-(2-(-1-(dimethylamino)-2-hydroxyethyl)pyridin-4-yl)-4,5-dimethyl-5-(trifluoromethyl)tetrahydrofuran-2-carboxamide]",< 10,–
"CNC(CO)c1cc(NC(=O)[C@@H]2O[C@@](C)(C(F)(F)F)[C@@H](C)[C@H]2c2ccc(F)c(F)c2OC)ccn1 (single isomer, unassigned) [Compound 232]",< 10,–
"COc1c([C@H]2[C@H](C(=O)Nc3ccnc(C(CO)OC)c3)O[C@@](C)(C(F)(F)F)[C@H]2C)ccc(F)c1F (single isomer, unassigned) [Compound 248, rel-(2R*,3S*,4S*,5R*)-3-(3,4-difluoro-2-methoxyphenyl)-N-(2-(2-hydroxy-1-methoxyethyl)pyridin-4-yl)-4,5-dimethyl-5-(trifluoromethyl)tetrahydrofuran-2-carboxamide]",< 10,–
"COc1c([C@H]2[C@H](C(=O)Nc3ccnc(C(CO)OC)c3)O[C@@](C)(C(F)(F)F)[C@H]2C)ccc(F)c1F (single isomer, unassigned) [Compound 249, rel-(2R*,3S*,4S*,5R*)-3-(3,4-difluoro-2-methoxyphenyl)-N-(2-(2-hydroxy-1-methoxyethyl)pyridin-4-yl)-4,5-dimethyl-5-(trifluoromethyl)tetrahydrofuran-2-carboxamide]",–,< 10
"COc1c([C@H]2[C@H](C(=O)Nc3ccnc(C(O)C4CC4)c3)O[C@@](C)(C(F)(F)F)[C@H]2C)ccc(F)c1F (single isomer, unassigned) [Compound 251, rel-(2R*,3S*,4S*,5R*)-N-(2-(cyclopropyl(hydroxy)methyl)pyridin-4-yl)-3-(3,4-difluoro-2-methoxyphenyl)-4,5-dimethyl-5-(trifluoromethyl)tetrahydrofuran-2-carboxamide]",< 10,–
"COc1c(C2C(C(=O)Nc3ccnc(C(O)CF)c3)OC(C)(C(F)(F)F)C2C)ccc(F)c1F (single isomer, unassigned) [Compound 252, rel-(2R*,3S*,4S*,5R*)-3-(3,4-difluoro-2-methoxyphenyl)-N-(2-(2-fluoro-1-hydroxyethyl)pyridin-4-y1)-4,5-dimethyl-5-(trifluoromethyl)tetrahydrofuran-2-carboxamide]",< 10,–
"COc1c([C@H]2[C@H](C(=O)Nc3ccnc(C(O)CF)c3)O[C@@](C)(C(F)(F)F)[C@H]2C)ccc(F)c1F (single isomer, unassigned) [Compound 253, rel-(2R*,3S*,4S*,5R*)-3-(3,4-difluoro-2-methoxyphenyl)-N-(2-(2-fluoro-1-hydroxyethyl)pyridin-4-yl)-4,5-dimethyl-5-(trifluoromethyl)tetrahydrofuran-2-carboxamide]",< 10,–
"COc1c([C@H]2[C@H](C(=O)Nc3ccnc(C(O)C(F)F)c3)O[C@@](C)(C(F)(F)F)[C@H]2C)ccc(F)c1F (single isomer, unassigned) [Compound 254, rel-(2R*,3S*,4S*,5R*)-N-(2-(2,2-difluoro-1-hydroxyethyl)pyridin-4-yl)-3-(3,4-difluoro-2-methoxyphenyl)-4,5-dimethyl-5-(trifluoromethyl)tetrahydrofuran-2-carboxamide]",< 10,–
"COc1c([C@H]2[C@H](C(=O)Nc3cc(C(O)CCO)ncc3F)O[C@@](C)(C(F)(F)F)[C@H]2C)ccc(F)c1F (single isomer, unassigned) [Compound 256, rel-(2R*,3S*,4S*,5R*)-3-(3,4-difluoro-2-methoxyphenyl)-N-(2-(1,3-dihydroxypropyl)-5-fluoropyridin-4-yl)-4,5-dimethyl-5-(trifluoromethyl)tetrahydrofuran-2-carboxamide]",< 10,–
"CN=S(C)(=O)c1ccc(NC(=O)[C@@H]2O[C@@](C)(C(F)(F)F)[C@@H](C)[C@H]2c2ccc(F)c(F)c2OC)cn1 (single isomer, unassigned) [Compound 338]",10 to 100,–
"CNC(c1cc(NC(=O)[C@@H]2O[C@@](C)(C(F)(F)F)[C@@H](C)[C@H]2c2ccc(F)c(F)c2OC)ccn1)C(C)(C)OC (single isomer, unassigned) [Compound 344, rel-(2R*,3S*,4S*,5R*)-3-(3,4-difluoro-2-methoxyphenyl)-N-(2-(2-methoxy-2-methyl-1-(methylamino)propyl)pyridin-4-yl)-4,5-dimethyl-5-(trifluoromethyl)-tetrahydrofuran-2-carboxamide]",< 10,–

# The remaining lines, values ahead:
IC50 [1] [nM],"IC50 (in the presence of human serum (compound numbers followed by *), read-out: IC50 in the E-VIPR Assay, performed in the presence of human serum) [nM]",SMILES
< 10,–,"COc1c([C@H]2[C@H](C(=O)Nc3ccnc(O[C@@H]4COC[C@@H]4O)c3)O[C@@](C)(C(F)(F)F)[C@H]2C)ccc(F)c1F (single isomer, unassigned) [Compound 239, rel-(2R*,3S*,4S*,5R*)-3-(3,4-difluoro-2-methoxyphenyl)-N-(2-(((3R,4S)-4-hydroxytetrahydrofuran-3-yl)oxy)pyridin-4-yl)-4,5-dimethyl-5-(trifluoromethyl)tetrahydrofuran-2-carboxamide]"
< 10,–,"COc1c([C@H]2[C@H](C(=O)Nc3ccnc(O[C@H]4COC[C@H]4O)c3)O[C@@](C)(C(F)(F)F)[C@H]2C)ccc(F)c1F (single isomer, unassigned) [Compound 240, rel-(2R*,3S*,4S*,5R*)-3-(3,4-difluoro-2-methoxyphenyl)-N-(2-(((3S,4R)-4-hydroxytetrahydrofuran-3-yl)oxy)pyridin-4-yl)-4,5-dimethyl-5-(trifluoromethyl)tetrahydrofuran-2-carboxamide]"
10 to 100,–,"COc1c([C@H]2[C@H](C(=O)Nc3ccnc(O[C@H]4COC[C@H]4O)n3)O[C@@](C)(C(F)(F)F)[C@H]2C)ccc(F)c1F (single isomer, unassigned) [Compound 242, rel-(2R*,3S*,4S*,5R*)-3-(3,4-difluoro-2-methoxyphenyl)-N-(2-(((3S,4R)-4-hydroxytetrahydrofuran-3-yl)oxy)pyrimidin-4-yl)-4,5-dimethyl-5-(trifluoromethyl)tetrahydrofuran-2-carboxamide]"
< 10,–,"COc1c([C@H]2[C@H](C(=O)Nc3cn(C4COC4)nc3C)O[C@@](C)(C(F)(F)F)[C@H]2C)ccc(F)c1F (single isomer, unassigned) [Compound 330]"
10 to 100,–,"COc1c([C@H]2[C@H](C(=O)Nc3cnn(C4COC4)c3C)O[C@@](C)(C(F)(F)F)[C@H]2C)ccc(F)c1F (single isomer, unassigned) [Compound 331]"
< 10,–,"COc1c([C@H]2[C@H](C(=O)Nc3ccc(S(C)(=N)=O)nc3)O[C@@](C)(C(F)(F)F)[C@H]2C)ccc(F)c1F (single isomer, unassigned) [Compound 336, rel-(2R*,3S*,4S*,5R*)-3-(3,4-difluoro-2-methoxyphenyl)-4,5-dimethyl-N-(6-(S-methylsulfonimidoyl)-pyridin-3-yl)-5-(trifluoromethyl)-tetrahydrofuran-2-carboxamide]"
10 to 100,–,"COc1c([C@H]2[C@H](C(=O)Nc3ccc(S(C)(=N)=O)nc3)O[C@@](C)(C(F)(F)F)[C@H]2C)ccc(F)c1F (single isomer, unassigned) [Compound 337, rel-(2R*,3S*,4S*,5R*)-3-(3,4-difluoro-2-methoxyphenyl)-4,5-dimethyl-N-(6-(S-methylsulfonimidoyl)-pyridin-3-yl)-5-(trifluoromethyl)-tetrahydrofuran-2-carboxamide]"
10 to 100,–,"COc1c([C@H]2[C@H](C(=O)Nc3ccnc(C4COCCN4)c3)O[C@@](C)(C(F)(F)F)[C@H]2C)ccc(F)c1F (single isomer, unassigned) [Compound 342, rel-(2R*,3S*,4S*,5R*)-3-(3,4-difluoro-2-methoxyphenyl)-4,5-dimethyl-N-(2-(morpholin-3-yl)pyridin-4-yl)-5-(trifluoromethyl)-tetrahydrofuran-2-carboxamide]"
< 10,–,"COc1c([C@H]2[C@H](C(=O)Nc3ccnc(C4(N)CCOC4)c3)O[C@@](C)(C(F)(F)F)[C@H]2C)ccc(F)c1F (single isomer, unassigned) [Compound 346, rel-(2R*,3S*,4S*,5R*)-N-(2-(3-aminotetrahydrofuran-3-yl)pyridin-4-yl)-3-(3,4-difluoro-2-methoxyphenyl)-4,5-dimethyl-5-(trifluoromethyl)-tetrahydrofuran-2-carboxamide]"
